Patent publication US5411943A, “Hepatoma treatment with somatostatin analogs” (Biomeasure, Inc., priority 1992, dated 1995)

Assays:
M5123 hepatoma [1] = assay: Subrenal capsule assay (SRCA), M5123 rat hepatoma xenografts in athymic female mice; format: in vivo, mouse; conditions: s.c., b.i.d., q.d. 1-9; for Change in Tumor Size between day 0 and day 10: mean ± s.e.m.
Text: (§1) The M5123 hepatoma cells, obtained from Dr. H. P. Morris at the National Cancer Institute, were induced in the Buffalo strain of rats by ingestion of N-(2-fluorenylphthalamic acid) and established in serial transplantation. Implantation of the M5123 hepatoma cells in an immunodeficient athymic mouse or Buffalo strain rat reproducibly results in a progressively growing, lethal tumor.
(§2) To determine the growth inhibitory effect of bombesin analogs on hepatoma cells, two in vivo assay systems, the subcutaneous tumor assay in the syngeneic Buffalo strain rat and the subrenal capsule assay using the immunodeficient athymic nude mouse were employed.
SRCA was designed as a rapid in vivo method for testing chemotherapeutic agents against tumor xenografts prepared from solid malignancies. As an antitumor screening procedure, tumors, both human and murine, can be tested as xenografts in athymic female mice. For detailed description of this assay, see Bogden, A. E. et al. A rapid screening method for testing chemotherapeutic agents against human tumor xenografts. In: Proc. Symp. Use of Athymic (Nude) Mice in Cancer Research, p. 231, Edited by Houchens et al., Gustav Fisher, N.Y. (1978).
Further, an in situ determination of tumor xenograft size at time of implantation and again at termination of the assay, permits use of the very simple parameter of change in tumor size for evaluating tumor sensitivity to the analog. Since the initial measurement provides each xenograft with its own baseline for evaluating drug effects, one can measure tumor response to drugs in terms of progression, stabilization, partial remission and complete remission, which are parameters that have clinical relevance.
In this assay, xenografts prepared from the transplantation-established M5123 hepatoma were first implanted in immunodeficient athymic female mice, followed by treatment with BIM-23014, in assays of 10-day duration. Thirty two athymic female mice were implanted under the renal capsule with 1 mm cubed grafts of the M5123 rat hepatoma on day zero. Treatment with the analog was initiated on day one at 500, 250 and 50 μg per injection, s.c., b.i.d., on a q.d. 1-9 schedule. On day 10, the mice were sacrificed, the kidney was removed and the size of the tumor was measured to determine changes in tumor size between day 0 and day 10.
More specifically, the size of the tumor was measured in situ by means of a stereoscope, which was fitted with an ocular micrometer calibrated in ocular units (OMU, 10 OMU=1 mm). For each tumor, two perpendicular diameters were measured and the difference in mean tumor diameter over the 10-day period was calculated.

M5123 hepatoma [2] = assay: Subcutaneous tumor assay, M5123 hepatoma implanted s.c. in Buffalo strain rats; format: in vivo, rat; conditions: for Final Tumor Size Day 15 / Percent Test/Control: 500 μg analog/inj.; for Final Tumor Size Day 15: mean ± S.D.; for Percent Test/Control: day 15
Text: as §1, §2
In the subcutaneous assay, tumor grafts are implanted subcutaneously and treatment can be initiated at any selected time after the implantation.
In this assay, 20 male Buffalo strain rats were implanted s.c., right flank, with a 2 mm^3 mince of the M5123 hepatoma in the a.m. of day zero. The animals were individually identified and then randomized 10 rats in the control and 5 rats per test group. […] Tumor sizes were determined with Vernier calipers twice weekly and size calculated as the average of two diameters (length+width/2) mm.

[3] = Body weight change (systemic toxicity) in the subcutaneous assay; format: in vivo, rat; conditions: for Final Body Weight/Initial Body Weight ratio: q.d. 0-15 (control 1.15)
Procedure: In this assay, 20 male Buffalo strain rats were implanted s.c., right flank, with a 2 mm^3 mince of the M5123 hepatoma in the a.m. of day zero. The animals were individually identified and then randomized 10 rats in the control and 5 rats per test group. An somatostatin analog used in the invention, H-D-β-Nal-Cys-Tyr-D-Trp-Lys-Val-Cys-Thr-NH2 (code name: BIM-23014), was administered b.i.d. Monday through Friday, and as a single total daily dose on Saturday and Sunday. Tumor sizes were determined with Vernier calipers twice weekly and size calculated as the average of two diameters (length+width/2) mm.
Since neoplasms maintain autonomous growth by autocrine and paracrine growth factors, the importance of attaining therapeutic concentrations of an antigrowth factor such as BIM-23014 at the tumor site is emphasized in this study. […] Control Final Body Weight/Initial Body Weight ratio was 1.15, as compared to 1.06 for group 2 and 1.12 for group 3.

Question: Which results are given for CC(C)[C@@H]1NC(=O)[C@H](CCCCN)NC(=O)[C@@H](Cc2c[nH]c3ccccc23)NC(=O)[C@H](Cc2ccc(O)cc2)NC(=O)[C@@H](NC(=O)[C@H](N)Cc2ccc3ccccc3c2)CSSC[C@@H](C(=O)N[C@H](C(N)=O)[C@@H](C)O)NC1=O [BIM-23014, H-D-β-Nal-Cys-Tyr-D-Trp-Lys-Val-Cys-Thr-NH2]?
Answer: % Test/Control (M5123 hepatoma [1]; 50 μg analog/inj.): 93%; Change in Tumor Size between day 0 and day 10 (M5123 hepatoma [1]; 50 μg analog/inj.): 37.00 ± 1.80 omu; Inhibition (antitumor activity) (M5123 hepatoma [1]; 50 μg): 7%; % Test/Control (M5123 hepatoma [1]; 250 μg analog/inj.): 77%; Change in Tumor Size between day 0 and day 10 (M5123 hepatoma [1]; 250 μg analog/inj.): 30.56 ± 3.61 omu; Reduction in the growth of the tumor (M5123 hepatoma [1]; 250 μg/injection): about 25%; % Test/Control (M5123 hepatoma [1]; 500 μg analog/inj.): 84%; Change in Tumor Size between day 0 and day 10 (M5123 hepatoma [1]; 500 μg analog/inj.): 33.38 ± 2.19 omu; Inhibition (antitumor activity) (M5123 hepatoma [1]; 500 μg): 16%; Final Tumor Size Day 15 (M5123 hepatoma [2]; s.c. infusion (perilesional) b.i.d., q.d. 0-15): 10.2 ± 5.6 mm; Percent Test/Control (M5123 hepatoma [2]; s.c. infusion b.i.d., q.d. 0-15): 62%; Final Tumor Size Day 15 (M5123 hepatoma [2]; s.c., b.i.d., q.d. 0-15 (flank opposite from tumor)): 16.8 ± 2.4 mm; Percent Test/Control (M5123 hepatoma [2]; s.c., b.i.d., q.d. 0-15): 102%; Tumor inhibitory effect (in words) (M5123 hepatoma [2]; s.c. on the flank opposite from the tumor, 500 μg/inj.): no tumor inhibitory effects; Growth of the M5123 hepatoma (in words) (M5123 hepatoma [2]; s.c. perilesional infusion, 500 μg/inj., p<0.01): significantly inhibited; Systemic toxic effects from treatment as indicated by body weight loss (in words) ([3]; 500 μg/inj., b.i.d., q.d. 0-15): no evidence of systemic toxic effects; Final Body Weight/Initial Body Weight ratio ([3]; group 2: 500 μg/inj., s.c., b.i.d.): 1.06; Final Body Weight/Initial Body Weight ratio ([3]; group 3: 500 μg/inj., s.c. infusion b.i.d.): 1.12
